Measurements from patent EP0441252B1, “Alkaline phosphatase enzymes having improved specific activity for use in indicator reagents” (ABBOTT LABORATORIES, priority 1990, dated 1991).

Tests used:
Experiment in all cases: Kinetic constants (Km) of purified alkaline phosphatase
[1] = target: E. coli alkaline phosphatase variant pMA116, Lys^328 > Arg / Val^99 > Ala (Escherichia coli, UniProt P00634, form not given/K350R/V121A); details: Table 1; substrate not given
[2] = target: E. coli alkaline phosphatase variant pMA115, Asp^101 > Ser (Escherichia coli, UniProt P00634, D123S, form not given); details: Table 1; substrate not given
[3] = test system: O=[N+]([O-])c1ccc(OP(=O)(O)O)cc1; type: biochemical, E. coli; details: other: Table 1; substrate not given; pH 8.0; 25.0 °C

Sequence of E. coli alkaline phosphatase variant pMA116, Lys^328 > Arg / Val^99 > Ala (P00634 22-471 K350R/V121A): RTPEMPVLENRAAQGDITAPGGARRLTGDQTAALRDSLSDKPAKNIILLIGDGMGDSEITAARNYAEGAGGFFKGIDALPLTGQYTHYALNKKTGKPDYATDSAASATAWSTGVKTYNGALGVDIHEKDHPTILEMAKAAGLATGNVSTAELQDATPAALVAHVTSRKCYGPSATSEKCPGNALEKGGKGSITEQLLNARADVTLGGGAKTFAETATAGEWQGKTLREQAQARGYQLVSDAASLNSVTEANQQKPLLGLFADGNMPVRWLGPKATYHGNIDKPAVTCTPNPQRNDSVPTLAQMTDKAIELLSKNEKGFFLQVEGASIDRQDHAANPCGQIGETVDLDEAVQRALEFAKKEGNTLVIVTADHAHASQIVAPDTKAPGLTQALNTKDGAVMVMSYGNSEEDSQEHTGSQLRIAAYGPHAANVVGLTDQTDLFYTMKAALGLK
Sequence of E. coli alkaline phosphatase variant pMA115, Asp^101 > Ser (P00634 22-471 D123S): as the sequence (P00634 22-471 K350R/V121A) above, with A100V, D102S, R329K counted along it

Question: How did the Km [1] turn out when `O=[N+]([O-])c1ccc(OP(=O)(O)O)cc1` [pNPP, p-nitrophenyl phosphate] was run?
Answer: Its Km is 74 µM.

Question: And the Km [2]?
Answer: The Km was 56 µM.

Question: With “E. coli alkaline phosphatase variant pMA110, Val^377 > Ala / Ser^415 > Gly (Escherichia coli K-12; S437G/V399A)” as the molecule, how does the Km [3] read?
Answer: The Km was 23 µM.
